Experimental data taken from patent US9047904B2, “Magnetic recording medium” (priority 2009, dated 2015).

Details: 50 mg in 20 mL water + 30 mL tetrahydrofuran; titrated with 0.1N NaOH; pH at half of the neutralization titration quantity
Protocol: In the present invention, the term “acid strength” refers to a value that is measured by the following method.
A 50 mg sample of organic acid A or B is dissolved in a mixed solution of 20 mL of water and 30 mL of tetrahydrofuran. Titration to neutral is conducted using a model GT-100 Win automatic titrator made by Mitsubishi Chemical Analytech with 0.1N NaOH (Wako Pure Chemical Industries). The pH corresponding to half of the titration quantity that is added dropwise to attain the neutralization point is read, and that pH is adopted as the acid strength.
<Acid Strength of Organic Acids A and B>
A 50 mg sample of organic acid A or B was dissolved in a mixed solution of 20 mL of water and 30 mL of tetrahydrofuran. Titration to neutral was conducted with 0.1N NaOH (Wako Pure Chemical Industries) using a model GT-100 Win automatic titrator made by Mitsubishi Chemical Analytech. The pH corresponding to half of the titration quantity that was added dropwise to attain the neutralization point was read, and that pH was adopted as the acid strength.

Compound	pKa(B) (acid strength of organic acid B)	pKa(A) (acid strength of organic acid A)
O=C(O)CC(O)(CC(=O)O)C(=O)O [Citric acid, citric acid]	5.84	
Phenyl phosphate		4.01
